# Source: patent publication US7763647B2, “Topical solution containing a chromane or chromene derivative” (Laboratories Expanscience, priority 2001, dated 2010)
# Experiments:
# [1] = system: actinic erythema induced by UVA+B irradiation; experiment: Reduction of actinic erythema induced by UVA+B irradiation, double blind test with placebo, visual reading; type: in vivo, healthy volunteers; conditions: when solubilized beforehand in PEG 300
# Method: The placebo (P1) and the active products (P2), (P3) and (P4) were thus used to carry out this test.
# Several steps were followed: • Preliminary step: Evaluation of the individual Minimum Erythemal Dose (MEDi). • First step: Application of products P1 to P4 to a 35 cm^2 surface. The quantity applied is exactly 4 mg/cm^2. The zones for applying the products are modified by rotation from one volunteer to another. • Second step: Irradiation of the treated zones and of one untreated zone (control zone) fifteen minutes after application of the products, by positioning the MEDi at the third hole. • Third steps: Visual readings of the erythema 6 and 24 hours after the irradiation. a.) Choice of the Subjects […]
# Beforehand, with the same apparatus, the individual MED of each subject was determined on the top of the back. […]
# The irradiation times for the treated zones and for the untreated zone are determined so as to place the MEDi at the third hole.
# The administered UV doses are calculated with the aid of a calibrated ROBERTSON-BERGER dosimeter equipped with a UVB reading head. The results are expressed directly as values read on the dosimeter and expressed as MED (1 MED=25 mJ/cm^2). […]
# A numerical quantification corresponding to the degree of erythema is performed according to the following table: […]
# [2] = Tests of solubility of genistein in polyethylene glycols or their ethoxylated homologs (HPLC assay); conditions: for Genistein assayed (% by weight in the solution): room temperature, stirred 30 minutes
# Method: Tests of Solubility of Genistein in Polyethylene Glycols or Their Ethoxylated Homologs Procedure:
# The quantity of genistein used in powdered form is accurately weighed in a 250 ml beaker. A precise quantity of excipient is then added. The mixture is then vigorously stirred (mechanical stirring) at room temperature for 30 minutes. The product is then directly assayed according to the protocol described below.
# The assay of genistein is carried out by reverse phase high-performance liquid chromatography (C18 stationary phase—acetic acid/acetonitrile mobile phase) and detection by UV spectrophotometry (absorption maximum of the compound).
# [3] = excipient PEG 200, genistein used 12.0% by weight
# [4] = excipient PEG 300, genistein used 8.0% by weight
# [5] = excipient PEG 300, genistein used 10.0% by weight
# [6] = excipient PEG 300, genistein used 12.0% by weight
# [7] = excipient PEG 400, genistein used 12.0% by weight
# [8] = excipient PEG 600, genistein used 12.0% by weight
smiles,measurement,setting,value
O=c1c(-c2ccc(O)cc2)coc2cc(O)cc(O)c12 [Genistein],Antierythemal activity of genistein,[1],increased
same,"Concentration at which genistein can be incorporated, in soluble form, into PEG 300",[2]; PEG 300,~12 % by weight relative to the total weight of the solution
same,Genistein assayed (% by weight in the solution),"[2]; excipient Laureth 11 (oxyethylenated C12 alcohol), genistein used 12.0% by weight",9.5 % by weight in the solution
same,Solubility,"[2]; excipient Laureth 11, genistein used 12.0% by weight",high
same,Genistein assayed (% by weight in the solution),"[2]; excipient Liponic EG1 (ethoxylated glycerol), genistein used 10.0% by weight",9.1 % by weight in the solution
same,Solubility,"[2]; excipient Liponic EG1, genistein used 10.0% by weight",high
same,Solubility,[2]; [3],high
same,Genistein assayed (% by weight in the solution),[2]; [3],10.9 % by weight in the solution
same,Solubility,[2]; [4],high
same,Genistein assayed (% by weight in the solution),[2]; [4],7.6 % by weight in the solution
same,Solubility,[2]; [5],high
same,Genistein assayed (% by weight in the solution),[2]; [5],9.3 % by weight in the solution
same,Solubility,[2]; [6],high
same,Genistein assayed (% by weight in the solution),[2]; [6],11.2 % by weight in the solution
same,Solubility,[2]; [7],high
same,Genistein assayed (% by weight in the solution),[2]; [7],10.1 % by weight in the solution
same,Genistein assayed (% by weight in the solution),"[2]; excipient PEG400 dilaurate (fatty diester of PEG), genistein used 12.0% by weight",9.5 % by weight in the solution
same,Solubility,"[2]; excipient PEG400 dilaurate, genistein used 12.0% by weight",high
same,Solubility,[2]; [8],high
same,Genistein assayed (% by weight in the solution),[2]; [8],10.7 % by weight in the solution
